Measurements taken from patent US10576050B2, “Methods and compositions for treatment of cancer” (ONCONOVA THERAPEUTICS, INC., priority 2012, dated 2020).
Several values for one entry are separate records, joined by “and”; a condition that tells them apart may be missing. Equal entries are not always repeated.

How the values were obtained:
[1] = Phase 1 dose escalation study of oral ON 01910.Na in MDS patients refractory to ESA, lenalidomide and DNA methyltransferase inhibitors
Description: FIG. 1: Safety and efficacy of Rigosertib (ON 01910.Na) was determined in a dose escalation study in MDS patients refractory to ESA, lenalidomide and DNA Methyltransferase inhibitors. ESA was allowed as concomitant medication. The drug dose was escalated based on a defined escalation dose scheme (70 mg, 140 mg, 280 mg, 560 mg, and 700 mg). Three patients were treated with single escalating weekly doses of oral Rigosertib to determine the oral absorption of Rigosertib.
FIG. 3: The oral absorption and tolerability of Rigosertib administered as single weekly escalating doses in a fasting state were determined in 3 patients. All 3 patients received a 70 mg single oral dose and blood samples for pharmacokinetic analyses were obtained. In the absence of drug-related grade ≥2 toxicity, single dosing was escalated weekly in each patient to 140 mg (week 2), 280 mg (week 3), 560 mg (week 4) and 700 mg (week 5).
FIG. 4: This is a waterfall plot of 8 patients broken down by French American British classification (FAB) as either Refractory Anemia with Excess Blasts-1 (RAEB-1) or RAEB-2. […] The dosage level of each patient is also provided, as well as the patient history of treatment with Azacytidine. The bone marrow blast reduction is measures as a function of FAB classification, dosage and prior treatment with hypomethylating agents.
FIG. 10: Transfusion independence. […] Transfusion independence (TI) defined by absence of RBC transfusion for at least 8 consecutive weeks. Erythroid Response (ER) defined by reduction of at least 4 RBC transfusions/8 weeks compared to pretreatment transfusion number in the previous 8 weeks (RBC Tx for Hb<9.0 g/dL).
Each bar represents one patient. 12 individual MDS patients all categorized as low to intermediate-1 risk (International Prognostic Scoring System—IPSS) and transfusion dependent are shown. […] The decrease in transfusion requirement is plotted for each patient. The absolute differences in red blood cell (RBC) units versus pre-treatment needs are provided.
A total of 16 patients are plotted against their percentage reduction in need for red blood cell transfusions after treatment versus their pre-treatment needs.
Safety and efficacy of a novel oral formulation of ON 01910.Na were determined in a dose escalation study in MDS patients refractory to ESA, lenalidomide and DNA Methyltransferase inhibitors.
ESA was allowed as concomitant medication. The drug dose was escalated based on a defined escalation dose scheme (70, 140, 280, 560, and 700 mg). The drug was administered orally twice a day for 14 days of a 21 day cycle.
Rigosertib (ON 01910.Na) was used in five clinical trials for myelodysplastic syndrome (MDS) in both intravenous and oral formulations.

[2] = Phase I/II study of Rigosertib continuous IV infusion in relapsed or refractory AML or transformed MPN; conditions: for concentration at 6 h: human, in vivo, 2400 mg/day, average plasma levels, 2400 mg/day CIV
Description: (§1) Methods: The patients were >18 years of age with relapsed or refractory AML or transformed myeloproliferative neoplasms (MPN). Patients were given Rigosertib by continuous IV infusions over 24 hours with a fixed dose of 2400 mg/day either for 72 hrs or 120 hrs every other week using a standard dose escalation scheme. A blood sample was withdrawn at 6 hrs after the start of infusion during cycle 1 and cycle 2 to assess the plasma concentration of Rigosertib. The study was subsequently amended and, after 2 cycles of IV Rigosertib (each cycle being 2 weeks) patients received Rigosertib orally, 560 mg twice a day continuously for 20 weeks. The objectives of Phase I study were to define maximum tolerated dose (MTD), dose limiting toxicities (DLT), and identify all toxicities and anti-leukemia activity. Phase II primary objective was to determine the clinical efficacy; secondary objectives were to assess time to response or progression, duration of response and overall survival at 6 months.
as §1, with “Patients with” for “Methods: The patients were >18 years of age with”, “neoplasms (MPN)” for “neoplasms (MPN). Patients”, “hours (hrs)” for “hours”, “of phase 1” for “of Phase I”, “(DLT),” for “(DLT), and”, “Phase 2” for “Phase II”

[3] = Dose escalation of oral Rigosertib twice daily in patients with refractory solid tumors; assay type: in vivo, human; conditions: BID continuously, 25 patients
Description: Twenty-five patients with histologically confirmed solid tumors refractory to standard therapy were given escalating doses of oral Rigosertib twice daily. Doses were increased according to a schedule until the appearance of grade 2 or grade 3/4 toxicities. The maximum tolerated dose (MTD) of oral Rigosertib administered twice daily continuously is 560 mg BID. Dysuria was identified as a potential dose-limiting adverse event and a reported toxicity. […] The antitumor activity in this study supported past observations of Rigosertib efficacy in other solid tumor clinical trials. Pharmacokinetic (PK) data reveal plasma levels with oral Rigosertib were above the predicted pharmacodynamically active levels. Final safety and efficacy results, plasma and urinary PK relationships, and mutational analyses from archival tissue are presented

[4] = 8 RAEB-1/RAEB-2 patients, FIG. 4
[5] = individual patients achieving transfusion independence

Q: Which results are given for `COc1cc(OC)c(/C=C/S(=O)(=O)Cc2ccc(OC)c(NCC(=O)[O-])c2)c(OC)c1.[Na+]` [Rigosertib, sodium (E)-2-{2-methoxy-5-[(2′,4′,6′-trimethoxystyrylsulfonyl)methyl]phenylamino}acetate]?
A: patients with dose limiting toxicity (DLT) during first 3-week cycle ([1]; 700 mg dose level, dysuria and shortness of breath): One; patients responding (bone marrow blast reduction) [1, 4]: 6 of 8; patients with bone marrow complete response (BM CR) [1, 4]: 2; patients showing decrease in transfusion dependence based on RBC requirement (absolute differences) ([1]; 12 low to intermediate-1 risk transfusion dependent MDS patients, oral, 8 weeks, FIG. 13): 3 of 12; patients showing decrease in transfusion dependence based on decrease in percentage of RBC requirement ([1]; 16 patients, FIG. 14): 5 of 16; tolerability of oral formulation ([1]; 70-700 mg orally twice a day, 14 days of a 21 day cycle): well tolerated; # Units/56 ds Trt ([1]; RBC units per 56 days of treatment, individual patients): 8.0 and 10.5 (2×) and 3.2 and 3.1 and 0.3 (2×) and 4.4 and 11.6 (2×) and 7.1 and 2.0 and 4.3 and 2.9 and 4.9 and 6.4; % Reduction ([1]; RBC units vs pre-treatment, individual patients): 100% and 74% and −68% and −49% and −87% and −45% and −88% and 44% and −41% and −50% and 5% and −29% and −52% and −18% and 7% and −3%; # Units during Trt ([1]; RBC units, individual patients, one table row per patient): 2 (4×) and 17 and 10 and 16 (3×) and 13 and 4 (4×) and 21 and 8; safe and efficacious dose ([1]; bid, oral, 14 days of a 21 day cycle): 560 mg; TX response ([1]; individual Low-Int-1 risk transfusion dependent MDS patients, 560 or 700 mg bid, one table row per patient): No; Duration Tx indep [1, 5]: 16 and 47+ (2×) and 8; Onset Tx indep week [1, 5]: 10 and 7 and 6 and 3; Cmax as a function of dose ([1]; single weekly escalating oral doses 70-700 mg, fasting, 3 patients): increased linearly; Red RBC Units ([1]; units/56 days on treatment vs units in 56 days pre-treatment, individual patients): 4.0 and 4.5 and −6.8 and −2.9 and −3.7 and −3.6 and −5.7 and 3.6 and −4.9 and −2.0 and 0.5 and −1.7 and −3.1 and −1.1 and 0.4 and −0.4; patients with transient hematologic response with improvement of platelets ([2]; 4 patients): 16%; absolute reduction of peripheral blasts (best response, stabilization of disease) ([2]; after 2 cycles): > 50%; patients with stabilization of disease with >50% absolute reduction of peripheral blasts ([2]; after 2 cycles, 2/25 patients): 8%; patients with peripheral blasts maintained at +/−10% of pretreatment level ([2]; after 2 cycles, 4 patients): 16%; concentration at 6 h ([2]; week 1, 6 hrs after start of infusion): 9.2 ± 5.05 µM; concentration at 6 h ([2]; week 3, 6 hrs after start of infusion): 9.81 ± 6.7 µM; toxicity profile ([2]; main adverse event transient AMS (altered mental status)): acceptable toxicity profile; DLT dose ([2]; over 24 hrs): 2400 mg; MTD ([2]; over 24 hrs for 3 days, CIV): 2400 mg; maximum tolerated dose (MTD) [3]: 560 mg
